We go through three compounds from patent US20130171079A1, “COMPOSITION TO STABILISE KOJIC ACID” (Pangaea Laboratories Ltd., priority 2011, published 2013).

A short description of series [1]: Colour-change stability test of 2% kojic acid in an aqueous cosmetic base with sodium metabisulphite and/or propyl gallate. In kind it is physicochemical. As to conditions: over 42 days, room temperature, 2% kojic acid aqueous base. How it is done:
A test was conducted to measure the effect of sodium metabisulphite and propyl gallate on the stability of kojic acid in aqueous cosmetic or pharmaceutical compositions. In this regard kojic acid is known to change colour from a slight yellow to very dark yellow as it degrades, and so colour change was used as the indicator of stability vs. degradation. All samples contained 2% kojic acid in an aqueous cosmetic base. [table] Each sample was photographed and optically assessed against a 20-stage yellow colour spectrum, where 1 was a very pale straw yellow, and 20 was a dark yellow. Photographs were taken on day 1, day 7 and day 42. In between photographs, the samples were stored together at normal room temperature.

The nature of series [2]: Earlier experiments on stability (discolouration) of kojic acid solutions with stabilisers. In kind it is physicochemical. As to conditions: two month period. The source says:
One useful, if obvious, solution to the problem would be to add a preservative such as sodium metabisulphite. Sodium metabisulphite is in a class of preservatives that release sulphur dioxide. […] However this option is not enough for two reasons. Firstly, two months is not sufficient shelf life for a cosmetic or pharmaceutical composition. Secondly, a preferable format for a skin lightening composition would also include one or more other lightening ingredients, such as lactic acid, niacinamide and ascorbic acid. The net effect of these ingredients may lower the pH, and accelerate the degradation of kojic acid. This has been shown in experiments to overcome the stabilising effect of sodium metabisulphite during a two month period.
It was then hypothesised that reducing agents or antioxidants may help by preventing free radical formation. Various antioxidants were tested without noticeable effect.
Researchers expected the combination to deliver better results that propyl gallate, but worse results than sodium metabisulphite alone. Instead the kojic acid solution remained completely clear for more than two months. The result is certainly not additive and therefore must be due to some previously unknown synergy between sodium metabisulphite and propyl gallate.

The conditions of series [3]: background statement; accelerated by heat, UV or low pH; cited from earlier work.

For `CCCOC(=O)c1cc(O)c(O)c(O)c1` [propyl gallate], the “effect of the additive on stability of kojic acid (in words)” value in series [1] is listed as “worsened stability slightly”.
As to `O=S([O-])S(=O)(=O)[O-].[Na+].[Na+]` [sodium metabisulphite], the “effect of the additive on stability of kojic acid (in words)” value in series [1] is “improved stability slightly”. In series [2], the “stabilisation / discolouration of kojic acid solution (in words)” value was “keeping discolouration to a low level for up to two months”.
As for `O=c1cc(CO)occ1O` [kojic acid], the “stability of kojic acid in solution (in words)” value in series [3] is recorded as “degrades within weeks in solution”.
